From patent US6528655B1, “Aromatic derivatives with HIV integrase inhibitory properties” (Pharmacor, Inc., priority 2000, dated 2003)
Read-outs that look alike come from different tables or passages of the source.

Target: HIV-1 integrase (Human immunodeficiency virus type 1 group M subtype B, UniProt P04585)
Test: HIV-1 integrase inhibition assay (radiolabeled duplex substrate corresponding to the U5 end of the HIV LTR)
Format: biochemical
Method: For the purpose of Table 1 to 4, the HIV-1 integrase inhibition assay was carried out following a known procedure (Burke, Jr. T. R. et al., J. Med. Chem. 38, 4171-4178 (1995)). A suitable radiolabeled duplex substrate corresponding to the U5 end of the HIV LTR was used.
For the purposes of Table 1 to 4 the HIV-1 integrase inhibition assay was based on a known procedure (Hazuda, D. J. et al., Nucleic Acids Res. 22 1121-1122 (1994)).

[1] = Table 4, compounds of formula I′, read-out: IC50

CC(C)(C)OC(=O)CC[C@H](NC(=O)c1cc(F)ccc1O)C(=O)NCCc1cccs1 [Example 107, N-[Nα-(5-Fluoro-2-hydroxybenzoyl)-Oδ-tert-butyl-L-glutamyl]-2-(2′-thiophenyl)ethylamine]
IC50: > 10 µM

O=C(O)CC[C@H](NC(=O)c1cc(F)ccc1O)C(=O)NCCc1cccs1 [Example 108, N-[Nα-(5-Fluoro-2-hydroxybenzoyl)-L-glutamyl]-2-(2′-thiophenyl)ethylamine]
IC50: > 10 µM

COc1ccc(NC(=O)[C@H](CCC(=O)NC(c2ccccc2)(c2ccccc2)c2ccccc2)NC(=O)c2cc3ccccc3n2Cc2ccc(F)cc2)cc1O [Example 109, N-[Nα-(N′-(4-Fluorobenzyl)indole-2-carbonyl)-Nδ-trityl-L-glutaminyl]-3-hydroxy-4-methoxyaniline]
IC50 [1]: 5.3 µM

COc1ccc(NC(=O)[C@H](CCC(=O)NC(c2ccccc2)(c2ccccc2)c2ccccc2)NC(=O)c2ccc(OCc3ccc(F)cc3)c(OCc3ccc(F)cc3)c2)cc1O [Example 111, N-[Nα-(3,4-di-(4-Fluorobenzyloxy)benzoyl)-Nδ-trityl-L-glutaminyl]-3-hydroxy-4-methoxyaniline]
IC50: 6.1 µM

COc1ccc(NC(=O)[C@H](CCC(=O)NC(c2ccccc2)(c2ccccc2)c2ccccc2)NC(=O)/C=C/c2ccc(OCc3ccc(F)cc3)c(OCc3ccc(F)cc3)c2)cc1O [Example 112, N-[Nα-(3,4-di-(4-Fluorobenzyloxy)caffeoyl)-Nδ-trityl-L-glutaminyl]-3-hydroxy-4-methoxyaniline]
IC50: 2 µM

COc1ccc(NC(=O)[C@H](CCC(=O)NC(c2ccccc2)(c2ccccc2)c2ccccc2)NC(=O)c2cc3cc(F)ccc3[nH]2)cc1O [Example 113, N-[Nα-(5-Fluoroindole-2-carbonyl)-Nδ-trityl-L-glutaminyl]-3-hydroxy-4-methoxyaniline]
IC50: 6.5 µM

N-[Nα-(N′-(4-Fluorobenzyl)indole-2-carbonyl)-Oδ-tert-butyl-L-glutamyl]benzylamine [Example 89]
IC50 [1]: > 10 µM

Nα,Nε-di-(3,5-Dihydroxynaphthyl-2-carbonyl)-L-lysine [Example 65]
IC50 (Table 2, compounds of formula III′, read-out: IC50): > 5 µM
